Measurements reported in patent US12233145B2, “Ultra-violet absorbing compounds” (CIIMAR—CENTRO DE INVESTIGACAO MARINHA E AMBIENTAL, priority 2018, dated 2025).

Key:
[1] = UV-Vis absorption of scytoneman-like compounds; type: physicochemical
Source text: The compounds were isolated from cyanobacteria collected from a small saltern pond located just behind the primary dune in Mrizika, Morocco (GPS coordinates: 32.955807, −8.779638). […] To explore the chemodiversity of the mat, the biomass was freeze-dried (650 g, d.w.) and extracted using a dichloromethane/methanol mixture (2:1). The crude extract was then fractionated by vacuum liquid chromatography using a solvent gradient with increasing polarity from 100% hexanes to 100% ethyl acetate and then to 100% MeOH. […] The filtered solution was subfractionated through flash chromatography using a gradient of hexanes, ethyl acetate to methanol.

[2] = system: SY-SH5Y (neuroblastoma cell line); experiment: Cytotoxicity tests using the MTT assay; type: cell-based; details: final concentration 10 μg mL^−1
Experimental: 1% DMSO (v/v) was used as negative control and 20% DMSO (v/v) as a positive control;
The pure compounds were also tested in cytotoxicity assays using the MTT assay.

[3] = system: Staphylococcus aureus (ATCC 29213); experiment: Antimicrobial assay, disc diffusion method; type: cell-based; details: final concentration of 15 μg mL^−1; S. aureus ATCC 29213
Experimental: Kanamycin and ampicillin (15 μg) were used as positive controls.
The pure compounds were also tested in antimicrobial assays using the disc diffusion method. […] Apart from its sunscreen function, the previously known scytonemins have been associated with anticancer and antioxidative activity, but no antimicrobial activity has ever been reported for any of the scytoneman family of compounds until now.

cyanobacteria = details: cited from earlier work
[4] = Table 1, identification by LC-HRMS analysis

Substance | Main absorbance regions [1, 4] | Main absorbance regions ([1]; Table 2, UV-Vis spectra) | Max wavelength ([1]; maximum absorption wavelengths, UV-Vis spectra) | cell viability ([2]; 24 h of exposure) | cell viability ([2]; 48 h of exposure) | antimicrobial activity [3] | reduction of the UV-A radiation that penetrates the cells (cyanobacteria)
3,3′-dihydroxyscytonemin [585.2061] | UVB | UVB | 293 nm |  |  |  | 
3′-hydroxy-3-methoxyscytonemin [595.1864] | Green/blue | Green/blue |  |  |  |  | 
3′-hydroxyscytonemin | UVA | UVA |  | 37.8% | 18.3% | presented antimicrobial activity | 
scytonemin |  |  |  |  |  |  | up to 90%
